Experimental findings from patent US6043228A, “O^6 -substituted guanine derivatives, a process for their preparation and their use in treating tumor cells” (Cancer Research Campaign Technology Limited, priority 1993, dated 2000) are described below.

Data set [1] concerns the target T1, ATase in Raji cells (Homo sapiens, UniProt P16455).
T1 construct: endogenous in cells; host or cells: Raji
T1 sequence (P16455 1-207): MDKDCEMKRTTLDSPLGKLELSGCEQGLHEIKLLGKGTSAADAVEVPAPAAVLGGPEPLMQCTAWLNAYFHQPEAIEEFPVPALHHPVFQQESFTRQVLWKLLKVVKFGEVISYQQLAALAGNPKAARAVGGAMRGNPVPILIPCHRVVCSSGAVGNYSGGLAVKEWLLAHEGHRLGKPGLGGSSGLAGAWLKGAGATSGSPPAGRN
In words: Inactivation of ATase activity in mammalian cells: Raji. The format is cell-based. As for the experimental part:
(§1) Mammalian cells were cultured under standard conditions. For example, Raji (a human lymphoblastoid cell line from a Burkitt's lymphoma) cells were grown in suspension culture in RPMI medium supplemented with 10% horse serum. A375M cells are human melanoma cells from which the xenografts described below were established following subcutaneous injection into nude mice: WiDr cells are a human colon carcinoma cell line: Hamster+120 cells are a mitozolomide-selected subline of a Chinese hamster lung fibroblast V79 cell line called RJKO: Yoshida cells are a rat carcinosarcoma cell line and YRbus is a busulphan resistant subline thereof: XP cells are an SV40-transformed fibroblast cell line originally from the skin of a Xeroderma piamentosum patient, pHMGhAT2b cells are a clone of these cells that have been transfected with a mammalian cell expression vector containing the human ATase cDNA and pHMGla cells are a clone that have been transfected with the expression vector only (i.e. one not containing the human ATase cDNA). Cell pellets were resuspended in cold (4° C.) buffer I containing 2 μg/ml leupeptin and sonicated for 10 seconds at 12μ peak to peak distance. After cooling in ice, the cells were sonicated for a further 10 seconds at 18μ. […]

The target of data set [2] is T2, ATase in WiDr cells (Homo sapiens, UniProt P16455).
T2 construct: WiDr cells are a human colon carcinoma cell line; endogenous in cells; host or cells: WiDr
T2 sequence (P16455 1-207): T1 sequence (P16455 1-207)
Nature of the data set: Inactivation of ATase activity in mammalian cells: WiDr. The format is cell-based. To be noted: read-out: Inactivation of ATase in Mammalian Cells I50. As for the experimental part: as §1

Data set [3] has as its system A375 tumour xenografts. Nature of the data set: Xenograft study: sensitization of A375 tumour xenografts to BCNU. It is filed as in vivo, nude mice. Particulars: inactivator 30 or 60 mg/kg + BCNU 10-25 mg/kg i.p. (FIGS. 9-13). Here is the method:
OX6 OPT, England (OLAC mice). […] For this reason lower doses were administered. Cells (10^6) in 100 μl of PBS were injected subcutaneously into the right-hand flank of 8-10 week old nu/nu athymic mice. […] The experimental animals were also weighed every 1-2 days. Measurements continued until tumours in the control animals reached the maximum allowable volume (i.e. 1 cm×1 cm×1 cm).

Data set [4] relates to Chinese Hamster V79 cells. Nature of the data set: Sensitivity of mammalian cells to the inactivators alone: V79 cells. It is filed as cell-based. Particulars: inactivator alone, up to 600 μM. As for the experimental part: (§2) In order to assess the effects on cell growth alone, Xeroderma pigmentosum cells and Chinese Hamster V79 cells were exposed to increasing concentrations (up to 600 μM) of selected inactivators for 2 h at 37°. In some cases, the inactivators were allowed to undergo hydrolysis at 37° C. for 20 hours and then added to Raji cells in order to assess the extent to which the decomposition products of the agents might inhibit cell growth. After 6 days the extent of cell growth was determined as described above.

Data set [5] has as its system bone marrow cells. In words: Inactivator toxicity in bone marrow cells (GM-CFC colonies, inactivator alone). It is filed as cell-based, human. Particulars: 10 μM, 5 patients (Table 7). The source says: For the granulocyte/macrophage colony-forming cell (GM-CFC) assay primary human bone marrow samples were obtained from patients undergoing cardiothoracic surgery. […] The colonies represented precursor cells of the granulocyte/macrophage lineage (huGM-CFC). Survival was expressed as a % of the number of colonies at zero dose temozolomide.

For data set [6], the system named is Xeroderma pigmentosum cells. Nature of the data set: Sensitivity of mammalian cells to the inactivators alone: XP cells. The format is cell-based, human. Particulars: inactivator alone (FIG. 6). As for the experimental part:
as §2

Assay in data set [7]: as above
It is filed as cell-based, human. To be noted: human, xp cells; FIG. 6; read-out: dose required for growth inhibition relative to that required for ATase inactivation. Here is the method: as §2

In data set [8] the test system is DBA2 mice. Nature of the data set: Toxicity of inactivators in combination with temozolomide in non-tumour-bearing DBA2 mice. The format is in vivo, mouse. Particulars: 20 mg/kg inactivator + temozolomide 100 mg/kg i.p., four consecutive days (FIG. 25). As for the experimental part:
FIG. 25 is a graph showing the survival of animals in a comparative test of toxicity of BeG, B.4205 and B.4280 in combination with temozolomide (TZ) in non-tumour-bearing DBA, mice. Animals were given temozolomide alone (100 mg/kg i.p) or BeG (10 or 20 mg/kg i.p.), B.4205 (10 or 20 mg/kg i.p.) or B.4280 (10 or 20 mg/kg i.p.) followed one hour later by temozolomide (100 mg/kg i.p.) on four consecutive days. The vehicles were corn oil for the inactivators and PBS (20% DMSO) for temozolomide.

Data set [9] deals with ATase. Nature of the data set: Inactivation of ATase in mammalian cells, summary over human, rat and Chinese hamster cell lines. It is filed as cell-based. Particulars: Table 5. As for the experimental part:
Mammalian cells were cultured under standard conditions. For example, Raji (a human lymphoblastoid cell line from a Burkitt's lymphoma) cells were grown in suspension culture in RPMI medium supplemented with 10% horse serum. […]
Cells were diluted to 10^6 /ml in culture medium containing either the appropriate concentration of inactivator or an equivalent volume of vehicle (DMSO). […] ATase activity was determined as described above, in duplicate sonicated cell extracts and expressed as the, percentage activity remaining based on that present in the untreated controls (for example 350-450 fm/mg in Raji cells).

Data set [10] concerns nude mice. Nature of the data set: Survival of xenograft-bearing nude mice given inactivator plus temozolomide. It is filed as in vivo, mouse. As for the experimental part: Mice were treated with the inactivator as a suspension in corn oil by intraperitoneal injection (i.p.) or by oral gavage (p.o.) 60 mins prior to temozolomide (100 mg/kg in 20% DMSO in phosphate-buffered saline) which was always given by intraperitoneal injection: this schedule was repeated on days 1 to 5 inclusive. Controls received vehicle alone, inactivator alone or temozolomide alone.
The mice in the tests shown in FIGS. 19-24 were Swiss mouse derived athymic male mice ([…]) from ZENECA Pharmaceuticals, Mereside, Alderley Park, Macclesfield, Cheshire SK10 4T6, England.

The test system of data set [11] is DBA2 mice. Nature of the data set: Toxicity of inactivators in combination with BCNU in DBA2 mice. It is filed as in vivo, mouse. Particulars: Table 11. From the text:
All agents were given as a single i.p. dose

“Also recorded” adds a separate entry of the source. Read-outs that look alike come from different tables or passages of the source. A value given as a limit tells only on which side of the number the result lay.

For `Nc1nc(OCc2cccs2)c2nc[nH]c2n1` [B.4205, 0^6 -thenylguanine], the IC50 in data set [1] (Table 4, Raji cells, 2 hours at 37° C., read-out: Raji I50) was 20 nM; in data set [1] (Table 5, Human Raji, read-out: Inactivation of ATase in Mammalian Cells I50), 20 nM; in data set [2], 20 nM. The “sensitization of A375 xenografts to BCNU (tumour volume), in words” value in data set [3] was “comparable to O^6 -benzylguanine (BeG) in reducing tumour volume”. In addition, in [4], the “growth inhibition / toxicity to V79 cells, in words” value is on record as “no such effects were seen”. Moreover, the “toxic effect of inactivator alone on bone marrow cells, in words” value in data set [5] is recorded as “comparable to those for O^6 -benzylguanine”. Also, the “growth inhibition / toxicity to XP cells, in words” value in data set [6] was “more sensitive than V79 cells; also recorded: toxic”. Also, the selectivity ratio in [7] was no less than 100. Besides, in [8], the “acute toxicity in combination with temozolomide in DBA2 mice, in words” value is given as “less acutely toxic than BeG”. In addition, the “effectiveness relative to BeG in the cell lines used” value in data set [9] was “up to 7 times”.

`Nc1nc(OCc2cc(Br)cs2)c2nc[nH]c2n1` [B.4280, O^6-(4-bromothenyl)guanine]: the “toxicity of oral combination versus i.p. route, in words” value in data set [10] (with temozolomide (FIG. 24B)) is given as “marginally less toxic than the i.p. route”. For the same compound, the “toxicity at equi-effective doses for tumour growth inhibition, in words” value in data set [10] (with temozolomide (FIGS. 21B, 22B)) is given as “less toxic than B.4205”. Further, the “acute toxicity in combination with BCNU in DBA2 mice, in words” value in [11] is “considerably less acutely toxic than B.4205 or BeG”. In data set [8], the “acute toxicity in combination with temozolomide in DBA2 mice, in words” value is “less acutely toxic than BeG; also recorded: less acutely toxic than B.4205”.
